Results on five compounds are retold here after US20260372306A1, “MICROBIOCIDAL HETEROBICYCLIC DIHYDROOXADIAZINE DERIVATIVES” (SYNGENTA CROP PROTECTION AG, priority 2022, published 2026).

One may read the inhibition as how much of the control response was suppressed.

In one experiment the test system is Alternaria solani. The experiment can be described thus: Alternaria solani (Early Blight of Tomato), tomato leaf disks, preventative. In kind it is in vivo. As to conditions: 200 ppm; tomato leaf disks cv. Baby; inoculated 2 days after application; assessed 5-7 days after application. The method, then:
(§1) Leaf disks or leaf segments of various plant species are cut from plants grown in a greenhouse. The cut leaf disks or segments are placed in multiwell plates (24-well format) onto water agar. The leaf disks are sprayed with a test solution before (preventative) or after (curative) inoculation. Compounds to be tested are prepared as DMSO solutions (max. 10 mg/mL) which are diluted to the appropriate concentration with 0.025% Tween20 just before spraying. The inoculated leaf disks or segments are incubated under defined conditions (temperature, relative humidity, light, etc.) according to the respective test system. A single evaluation of disease level is carried out 3 to 14 days after inoculation, depending on the pathosystem. Percent disease control relative to the untreated check leaf disks or segments is then calculated.
Tomato leaf disks cv. Baby are placed on agar in multiwell plates (24-well format) and sprayed with the formulated test compound diluted in water. […] The inoculated leaf disks are incubated at 23 °C/21 °C (day/night) and 80% rh under a light regime of 12/12 h (light/dark) in a climate cabinet and the activity of a compound is assessed as percent disease control compared to untreated when an appropriate level of disease damage appears on untreated check disk leaf disks (5-7 days after application).

The test system of the next experiment is Botryotinia fuckeliana. As to the kind of experiment: Botryotinia fuckeliana syn. Botrytis cinerea (Gray Mould of Grapevine), growth inhibition in nutrient broth. In kind it is cell-based. As to conditions: Vogels broth, 24 °C, photometric, 3-4 days after application, read-out: control of Botryotinia fuckeliana (inhibition of growth). The method, then: (§2) Mycelia fragments or conidia suspensions of a fungus prepared either freshly from liquid cultures of the fungus or from cryogenic storage, are directly mixed into nutrient broth. DMSO solutions of the test compound (max. 10 mg/mL) are diluted with 0.025% Tween20 by a factor of 50 and 10 μL of this solution is pipetted into a microtiter plate (96-well format). The nutrient broth containing the fungal spores/mycelia fragments is then added to give an end concentration of the tested compound. The test plates are incubated in the dark at 24 °C and 96% relative humidity. The inhibition of fungal growth is determined photometrically after 2 to 7 days, depending on the pathosystem, and percent antifungal activity relative to the untreated check is calculated.
Conidia of the fungus from cryogenic storage are directly mixed into nutrient broth (Vogels broth). After placing a (DMSO) solution of test compound into a microtiter plate (96-well format), the nutrient broth containing the fungal spores is added. The test plates are incubated at 24 °C and the inhibition of growth is determined photometrically 3-4 days after application.

In a further experiment the test system is Glomerella lagenarium. As to the kind of experiment: Glomerella lagenarium syn. Colletotrichum lagenarium (Anthracnose of Cucurbits), growth inhibition in nutrient broth. In kind it is cell-based. As to conditions: Colletotrichum orbiculare, PDB potato dextrose broth, 24 °C, photometric, 3-4 days after application, read-out: control of Glomerella lagenarium (inhibition of growth). On the procedure: as §2
Conidia of the fungus from cryogenic storage are directly mixed into nutrient broth (PDB potato dextrose broth). After placing a (DMSO) solution of test compound into a microtiter plate (96-well format), the nutrient broth containing the fungal spores is added. The test plates are incubated at 24 °C and the inhibition of growth is measured photometrically 3-4 days after application.

In another experiment the test system is Pyrenophora teres. As to the kind of experiment: Pyrenophora teres (Net Blotch of Barley), barley leaf segments, preventative. As to conditions: 200 ppm; barley leaf segments cv. Hasso; inoculated 2 days after application; assessed 5-7 days after application. In kind it is in vivo. On the procedure:
as §1
Barley leaf segments cv. Hasso are placed on agar in a multiwell plate (24-well format) and sprayed with the formulated test compound diluted in water. […] The inoculated leaf segments are incubated at 20 °C and 65% rh under a light regime of 12 h light/12 h darkness in a climate cabinet and the activity of a compound is assessed as disease control compared to untreated when an appropriate level of disease damage appears in untreated check leaf segments (5-7 days after application).

The next experiment relates to Sclerotinia sclerotiorum. The experiment can be described thus: Sclerotinia sclerotiorum (Cottony Rot of Oilseed Rape), growth inhibition in nutrient broth. In kind it is cell-based. As to conditions: PDB potato dextrose broth, 24 °C, photometric, 3-4 days after application, read-out: control of Sclerotinia sclerotiorum (inhibition of growth). On the procedure:
as §2
Mycelia fragments of a newly grown liquid culture of the fungus are directly mixed into nutrient broth (PDB potato dextrose broth). After placing a (DMSO) solution of test compound into a microtiter plate (96-well format) the nutrient broth containing the fungal material is added. The test plates are incubated at 24 °C and the inhibition of growth is determined photometrically 3-4 days after application.

The subject of a further experiment is Monographella nivalis. The experiment can be described thus: Monographella nivalis syn. Microdochium nivale, Fusarium nivale (Snow Mould, Foot Rot of Cereals), growth inhibition in nutrient broth. In kind it is cell-based. As to conditions: PDB potato dextrose broth, 24 °C, photometric, 4-5 days after application, read-out: control of Monographella nivalis (inhibition of growth). On the procedure:
as §2
(§3) Conidia of the fungus from cryogenic storage are directly mixed into nutrient broth (PDB potato dextrose broth). After placing a (DMSO) solution of test compound into a microtiter plate (96-well format), the nutrient broth containing the fungal spores is added. The test plates are incubated at 24 °C and the inhibition of growth is determined photometrically 4-5 days after application.

The test system of experiment [1] is Mycosphaerella graminicola. The experiment can be described thus: Mycosphaerella graminicola (Septoria tritici) (Septoria Blotch), growth inhibition in nutrient broth. In kind it is cell-based. As to conditions: Zymoseptoria tritici, read-out: control of Mycosphaerella gramminicola (inhibition of growth). The method, then: as §2, §3

With `Clc1ccc(CC2CON=C(c3c(Oc4cccc(C5CC5)c4)cnc4ccnn34)N2)c(Cl)c1` (stereo not shown) [Compound 1.1, 3-[6-(3-cyclopropylphenoxy)pyrazolo[1,5-a]pyrimidin-7-yl]-5-[(2,4-dichlorophenyl)methyl]-5,6-dihydro-4H-1,2,4-oxadiazine], the “control of Alternaria solani (percent disease control compared to untreated)” value with Alternaria solani is given as “at least 80%”. Moreover, the inhibition at 20 ppm in the experiment with Botryotinia fuckeliana, in the experiment on Glomerella lagenarium and in the experiment on Sclerotinia sclerotiorum was at least 80% throughout. Also, in the experiment on Pyrenophora teres, the “control of Pyrenophora teres (disease control compared to untreated)” value is on record as “at least 80%”.
As for `Clc1ccc(CC2CON=C(c3c(Oc4cccc(C5CC5)c4)cnc4c(Cl)cnn34)N2)c(Cl)c1` (stereo not shown) [Compound 1.2, 3-[3-chloro-6-(3-cyclopropylphenoxy)pyrazolo[1,5-a]pyrimidin-7-yl]-5-[(2,4-dichlorophenyl)methyl]-5,6-dihydro-4H-1,2,4-oxadiazine], the inhibition at 20 ppm in the experiment with Botryotinia fuckeliana is at least 80%.
Regarding `Fc1cc2ncc(Oc3cccc(C4CC4)c3)c(C3=NOCC(Cc4ccc(Cl)cc4Cl)N3)n2n1` (stereo not shown) [Compound 1.3, 3-[6-(3-cyclopropylphenoxy)-2-fluoro-pyrazolo[1,5-a]pyrimidin-7-yl]-5-[(2,4-dichlorophenyl)methyl]-5,6-dihydro-4H-1,2,4-oxadiazine], in the experiment with Botryotinia fuckeliana, the inhibition at 20 ppm is at least 80%.
Regarding `Clc1ccc(CC2CON=C(c3c(Oc4cccc(C5CC5)c4)cnc4cc(Cl)nn34)N2)c(Cl)c1` (stereo not shown) [Compound 1.4, 3-[2-chloro-6-(3-cyclopropylphenoxy)pyrazolo[1,5-a]pyrimidin-7-yl]-5-[(2,4-dichlorophenyl)methyl]-5,6-dihydro-4H-1,2,4-oxadiazine], the inhibition at 20 ppm in the experiment on Botryotinia fuckeliana is at least 80%.
Take `Clc1ccc(CC2CON=C(c3c(Oc4cccc(C5CC5)c4)cnn4ccnc34)N2)c(Cl)c1` (stereo not shown) [Compound 1.5, 3-[7-(3-cyclopropylphenoxy)imidazo[1,2-b]pyridazin-8-yl]-5-[(2,4-dichlorophenyl)methyl]-5,6-dihydro-4H-1,2,4-oxadiazine]: the inhibition at 20 ppm (in the experiment with Botryotinia fuckeliana; with Glomerella lagenarium; in the experiment on Monographella nivalis; in the experiment with Sclerotinia sclerotiorum; in experiment [1]) was at least 80% in each case.
